Measurements: patent US8383637B2, “2-amino-quinazoline derivatives useful as inhibitors of β-secretase (BACE)” (Jansssen Pharmaceutica N.V., priority 2004, dated 2013)

Target: T1, β-secretase(BACE) (Homo sapiens, UniProt P56817)
T1 construct: purchased Panvera
Experiment: BACE FS1% Inhibition Assay
Format: biochemical
Conditions: FS1 substrate
Outline: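 Human BACE (4 μg/mL working solution) preincubated 20 min at room temperature with compound, then FS1 substrate (300 μg/mL working solution) added and incubated 1 h at room temperature. Percent inhibition calculated at each compound concentration against blank and vehicle controls.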

T1 sequence (P56817 46-501): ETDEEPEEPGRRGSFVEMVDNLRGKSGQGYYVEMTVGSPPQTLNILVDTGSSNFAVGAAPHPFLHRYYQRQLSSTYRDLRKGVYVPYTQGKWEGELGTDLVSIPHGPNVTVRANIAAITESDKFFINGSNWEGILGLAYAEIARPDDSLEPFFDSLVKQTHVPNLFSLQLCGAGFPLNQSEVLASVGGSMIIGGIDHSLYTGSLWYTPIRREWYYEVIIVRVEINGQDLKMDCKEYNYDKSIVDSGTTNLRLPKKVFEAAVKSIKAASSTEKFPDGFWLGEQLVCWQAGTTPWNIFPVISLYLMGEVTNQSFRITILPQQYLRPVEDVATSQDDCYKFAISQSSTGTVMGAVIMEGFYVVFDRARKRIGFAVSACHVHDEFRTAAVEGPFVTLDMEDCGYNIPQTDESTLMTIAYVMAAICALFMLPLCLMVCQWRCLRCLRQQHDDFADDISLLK

Row | SMILES | % Inhibition (FS) 0.3 μM (0.3 μM test compound) | % Inhibition (FS) 1 μM (1 μM test compound) | % Inhibition (FS) 3 μM (3 μM test compound) | other results
1 | CC(C)Oc1ccc2c(c1)CN(Cc1cccc(C(=O)N(C)C3CCCCC3)c1)C(N)=N2 [Compound 519] | <30% | <30% | <30% | 
2 | CN(C(=O)c1cccc(CN2Cc3cc(OC4CCCC4)ccc3N=C2N)c1)C1CCCCC1 [Compound 520] | <30% | <30% | 33% | 
3 | CN(C(=O)c1cccc(CN2Cc3cc(OCC4CCCC4)ccc3N=C2N)c1)C1CCCCC1 [Compound 521] | <30% | <30% | <30% | 
4 | NC1=Nc2ccc(Oc3ccccc3)cc2CN1C1CCN(C(=O)C2CCCCC2)CC1 [Compound 522] |  |  |  | inhibition at 0.3 µM (0.3 μM test compound, read-out: % Inhibition (FS) 0.3 μM): < 30%; inhibition at 1 µM (1 μM test compound, read-out: % Inhibition (FS) 1 μM): < 30%; inhibition at 3 µM (3 μM test compound, read-out: % Inhibition (FS) 3 μM): 79%
5 | CCCC(CCC)C(=O)N1CCC(N2Cc3cc(Oc4ccccc4)ccc3N=C2N)CC1 [Compound 523] | <30% | <30% | 58% | 
6 | NC1=Nc2ccc(Oc3ccccc3)cc2CN1C1CCN(C(=O)C23CC4CC(CC(C4)C2)C3)CC1 [Compound 524] | <30% | <30% | 44% | 
7 | NC1=Nc2ccc(Oc3ccccc3)cc2CN1CC1CCN(C(=O)C2CCCCC2)CC1 [Compound 525] | <30% | <30% | 70% | 
8 | CCCC(CCC)C(=O)N1CCC(CN2Cc3cc(Oc4ccccc4)ccc3N=C2N)CC1 [Compound 526] | <30% | 36% | 98% | 
9 | NC1=Nc2ccc(Oc3ccccc3)cc2CN1CC1CCN(C(=O)C23CC4CC(CC(C4)C2)C3)CC1 [Compound 527] | <30% | <30% | 51% | 
10 | CC(C)[C@@H](CNC(=O)C1CCCCC1)N1Cc2cc(Oc3ccccc3)ccc2N=C1N [Compound 528] | <30% | <30% | 41% | 
11 | NC1=Nc2ccc(Oc3c(F)cccc3F)cc2CN1CCC(=O)NC1C2CC3CC(C2)CC1C3 (stereo not drawn) [Compound 529] | <30% | <30% | 66% | 
12 | CC1CCN(C(=O)CCCC(CCC(=O)N2CCC(C)CC2)N2Cc3cc(Oc4ccccc4)ccc3N=C2N)CC1 (stereo not drawn) [Compound 532] | <30% | <30% | 68% | 
13 | CS(=O)(=O)Nc1ccccc1-c1ccc2c(c1)CN(CCNC(=O)C1CCCCC1)C(N)=N2 [Compound 539] | <30% | <30% | <30% | 
14 | CSc1ccccc1-c1ccc2c(c1)CN(CCNC(=O)C1CCCCC1)C(N)=N2 [Compound 540] | <30% | 30% | 84% | 
15 | CC(=O)Nc1ccccc1-c1ccc2c(c1)CN(CCNC(=O)C1CCCCC1)C(N)=N2 [Compound 541] | <30% | <30% | <30% | 
16 | CC(C)(C)NS(=O)(=O)c1ccccc1-c1ccc2c(c1)CN(CCNC(=O)C1CCCCC1)C(N)=N2 [Compound 542] | <30% | <30% | 73% | 
17 | CCCC(CNC(=O)C1CCCCC1)N1Cc2cc(Oc3ccccc3)ccc2N=C1N (stereo not drawn) [Compound 554] |  |  |  | % Inhibition (FS) 0.3 μM (0.3 μM test compound, 0.3 µM): <30%; % Inhibition (FS) 1 μM (1 μM test compound, 1 µM): <30%; % Inhibition (FS) 3 μM (3 μM test compound, 3 µM): 42%
18 | CCCC(CNC(=O)C12CC3CC(CC(C3)C1)C2)N1Cc2cc(Oc3ccccc3)ccc2N=C1N (stereo not drawn) [Compound 555] |  |  |  | % Inhibition (FS) 0.3 μM (0.3 μM test compound, 0.3 µM): <30%; % Inhibition (FS) 1 μM (1 μM test compound, 1 µM): <30%; % Inhibition (FS) 3 μM (3 μM test compound, 3 µM): 46%

Continued, in another order:

Row | % Inhibition (FS) 0.3 μM (0.3 μM test compound) | % Inhibition (FS) 1 μM (1 μM test compound) | % Inhibition (FS) 3 μM (3 μM test compound) | SMILES | other results
19 | <30% | <30% | <30% | NC(=O)c1ccccc1-c1ccc2c(c1)CN(CCNC(=O)C1CCCCC1)C(N)=N2 [Compound 543] | 
20 | 32% | <30% | 51% | NC1=Nc2ccc(-c3ccccc3-c3ccccc3)cc2CN1CCNC(=O)C1CCCCC1 [Compound 544] | 
21 | <30% | 30% | 71% | CN(C(=O)c1cccc(CN2Cc3cc([S+]([O-])c4ccccc4)ccc3N=C2N)c1)C1CCCCC1 (stereo not drawn) [Compound 549] | 
22 | <30% | <30% | 67% | NC1=Nc2ccc(Oc3ccccc3)cc2CN1C1CCCCN(C(=O)C23CC4CC(CC(C4)C2)C3)C1 (stereo not drawn) [Compound 550] | 
23 | <30% | <30% | <30% | NC1=Nc2ccc(Oc3ccccc3)cc2CN1C1CCCCN(C(=O)C2CCCCC2)C1 (stereo not drawn) [Compound 551] | 
24 | <30% | <30% | 36% | CCCC(CCC)C(=O)N1CCCCC(N2Cc3cc(Oc4ccccc4)ccc3N=C2N)C1 (stereo not drawn) [Compound 552] | 
25 | <30% | <30% | 49% | CC(C)[C@@H](CNC(=O)C12CC3CC(CC(C3)C1)C2)N1Cc2cc(Oc3ccccc3)ccc2N=C1N [Compound 553] | 
26 | <30% | <30% | <30% | CN(C(=O)CCC(CO)N1Cc2cc(Oc3ccccc3)ccc2N=C1N)C1CCCCC1 (stereo not drawn) [Compound 557] | 
27 | <30% | <30% | <30% | CN(C(=O)c1ncoc1C(Cc1ccccc1)N1Cc2cc(Oc3ccccc3)ccc2N=C1N)C1CCCCC1 (stereo not drawn) [Compound 559] | 
28 | 106% | 118% | 128% | CC(C)C(CNC(=O)C12CC3CC(CC(C3)C1)C2)N1Cc2cc(Oc3ccccc3)ccc2N=C1N (stereo not drawn) [Compound 562] | 
29 | <30% | <30% | <30% | N#Cc1cccc(C(=O)NCCN2Cc3cc(-c4cncnc4)ccc3N=C2N)c1 [Compound 567] | 
30 | <30% | <30% | <30% | CCCC=Cc1ccc2c(c1)CN(CCNC(=O)c1cccc(C#N)c1)C(N)=N2 [Compound 568] | 
31 | <30% | <30% | <30% | CCCC(=O)NCCN1Cc2cc(-c3cncnc3)ccc2N=C1N [Compound 569] | 
32 | <30% | <30% | <30% | CCCC(=O)NCCN1Cc2cc(-c3ccncc3)ccc2N=C1N [Compound 570] | 
33 | <30% | <30% | <30% | CCCC=Cc1ccc2c(c1)CN(CCNC(=O)CCC)C(N)=N2 [Compound 571] | 
34 | <30% | <30% | <30% | CC(C)(C)C(=O)NCCN1Cc2cc(-c3ccncc3)ccc2N=C1N [Compound 573] | 
35 | <30% | <30% | <30% | CCCC=Cc1ccc2c(c1)CN(CCNC(=O)C(C)(C)C)C(N)=N2 [Compound 574] | 
